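All cell lines were grown in 96-well plates and treated with compound for 48 hours. Abbreviation: GI50, concentration required for 50% inhibition of growth. At the TGI there is no net growth.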
Legend:
Test in all cases: NCI tumour cell line growth inhibition, 48 h
SN12K1 renal = tested on: SN12K1 renal
KM20L2 colon = tested on: KM20L2 colon
P388 leukemia = tested on: P388 leukemia
CAKI-1 renal = tested on: CAKI-1 renal
DMS 273 small cell lung = tested on: DMS 273 small cell lung
M14 melanoma = tested on: M14 melanoma
MDA-MB-231 breast = tested on: MDA-MB-231 breast
DU-145 prostate = tested on: DU-145 prostate
MDA-MB-435 = tested on: MDA-MB-435
BT-549 breast = tested on: BT-549 breast
HS 578T breast = tested on: HS 578T breast
T-47D breast = tested on: T-47D breast

SMILES | TGI (KM20L2 colon) | TGI (CAKI-1 renal) | TGI (DMS 273 small cell lung) | TGI (M14 melanoma) | TGI (MDA-MB-231 breast) | TGI (DU-145 prostate) | TGI (MDA-MB-435) | TGI (BT-549 breast) | TGI (HS 578T breast) | TGI (T-47D breast) | also measured
CCOC(=O)CNC(=O)N(CC)C12CC3CC(CC(C3)C1)C2 | 223 µM | 313 µM | 315 µM |  |  |  |  |  |  |  | TGI (SN12K1 renal): 181 µM; TGI (P388 leukemia): 260 µM
CCOP(=O)(OCC)C(c1ccc(F)cc1)N(C(=O)NC(F)(F)F)c1cccc(C(F)(F)F)c1 (configuration not stated) |  | > 100 µM |  | > 100 µM | > 100 µM | > 100 µM | > 100 µM | > 100 µM | > 100 µM | > 100 µM | 
CC(=O)Nc1ccc(/C=C/c2ccc(NC(=O)Nc3ccc(/C=C/c4ccc(NC(C)=O)cc4S(=O)(=O)O)c(S(=O)(=O)O)c3)cc2S(=O)(=O)O)c(S(=O)(=O)O)c1 | > 100 µM |  | > 100 µM |  |  |  |  |  |  |  | TGI (SN12K1 renal): > 100 µM; TGI (P388 leukemia): > 100 µM
COc1ccccc1CNCCCN1C(=O)c2ccc3c4c(ccc(c24)C1=O)C(=O)N(CCCNCCNCCCN)C3=O |  | > 100 µM |  | 4.49 µM | > 100 µM | 12.5 µM | 4.94 µM | 6.43 µM | 42.9 µM | 4.99 µM | GI50 (M14 melanoma): 2.07 µM; GI50 (MDA-MB-231 breast): 2.09 µM; GI50 (DU-145 prostate): 3.65 µM; GI50 (MDA-MB-435): 2.07 µM; GI50 (BT-549 breast): 2.58 µM; GI50 (CAKI-1 renal): 21.7 µM; GI50 (HS 578T breast): 5.51 µM; GI50 (T-47D breast): 1.51 µM
CCC(C)NC1=NCC(C)S1 (configuration not stated) |  | > 100 µM |  | > 100 µM | > 100 µM | > 100 µM | > 100 µM | > 100 µM | > 100 µM | > 100 µM | 
CC1CC2=C(S(=O)(=O)c3ccccc3)CC(S(=O)(=O)c3ccccc3)(S(=O)(=O)c3ccccc3)CC21 (configuration not stated) | > 100 µM |  | > 100 µM | > 100 µM |  |  |  |  |  |  | 
Clc1ccc(C[P+](c2ccccc2)(c2ccccc2)c2ccccc2)c(Cl)c1 | 18.9 µM |  | 10.1 µM | 14.3 µM |  |  |  |  |  |  | 
CCOC(=O)Cn1c(=O)ccn(COCCO)c1=O |  | > 100 µM |  | > 100 µM | > 100 µM | > 100 µM | > 100 µM | > 100 µM | > 100 µM | > 100 µM | 
COc1cc2oc(-c3ccc(O)cc3)c(OC)c(=O)c2c(O)c1OC |  | > 100 µM |  | > 100 µM |  | > 100 µM |  | > 100 µM |  |  | GI50 (M14 melanoma): 47.2 µM; GI50 (DU-145 prostate): 18.3 µM; GI50 (BT-549 breast): 27.7 µM; GI50 (CAKI-1 renal): 45.1 µM
C[C@@H]1Nc2cc(NC(=O)OCCF)nc(N)c2N=C1c1ccccc1 |  |  |  |  |  |  | < 0.0001 µM | > 100 µM |  | > 100 µM | GI50 (CAKI-1 renal): < 0.0001 µM
CCOC(=O)c1ccc(N[C@@H]2c3cc4c(cc3C(c3cc(OC)c(O)c(OC)c3)[C@H]3C(=O)OCC32)OCO4)cc1O (some centres not stated) | > 22.3 µM | 3.26 µM | 1.77 µM |  |  |  |  |  |  |  | TGI (SN12K1 renal): 11.3 µM; TGI (P388 leukemia): 0.902 µM
C/C(=N/NC(N)=S)c1ccc[nH]1 |  | > 100 µM |  | > 100 µM | > 100 µM | > 100 µM | > 100 µM | > 100 µM | > 100 µM | > 100 µM | 
COCCCNc1nc(N)c(C#N)c(C#N)c1C#N |  | > 10 µM |  | > 10 µM | > 10 µM | > 10 µM | > 10 µM |  | > 10 µM | > 10 µM | 
CC1CCCCNC1=S (configuration not stated) |  |  |  | > 10 µM | > 10 µM | > 10 µM | > 10 µM | > 10 µM | > 10 µM | > 10 µM | 
COc1ccc(S(=O)(=O)c2ccccc2[N+](=O)[O-])cc1 | > 100 µM |  | > 100 µM | > 100 µM |  |  |  |  |  |  | 

— PubChem BioAssay (NCI)
